This assay concerns monoclonal antibody MV-002. The experiment in a line: In vitro binding assay (ELISA) of mimotopes to parental antibody. The following applies: peptide coupled to BSA bound to ELISA plates (1 μM); parental antibody MV-002. On the set-up: species or system mice. Here is the method: 1. In Vitro Binding Assay (ELISA)
Peptides derived from Phage Display as well as variants thereof were coupled to BSA and bound to ELISA plates (1 μM; as indicated in the respective figures) and subsequently incubated with the monoclonal antibody that was used for the screening procedure to analyse binding capacity of identified peptides.
On the technique in general: ELISA stands for enzyme-linked immunosorbent assay.
As for “GTIFFRDC [p4692, MV-002 mimotope peptide]”, the “Binding Capacity (binding code; OD halfmax 1:X, dilution factor of the parental AB)” value (shortened to “Binding Capacity”) is on record as 1 (weak binding :<40000).

For the sequence “GEMQFFIC [p4676, MV-002 mimotope peptide]”, the “Binding Capacity” value was 3 (strong binding :>320000).

On to “GQIKFAQC [p4694, MV-002 mimotope peptide]”, for which the “Binding Capacity” value is recorded as 3 (strong binding :>320000).

On to “GEIRFALC [p4678, MV-002 mimotope peptide]”, for which the “Binding Capacity” value was 3 (strong binding :>320000).

As to “HMRMYFEC [p4687, MV-002 mimotope peptide]”, the “Binding Capacity” value is on record as 3 (strong binding :>320000).

In the case of “GELFFEKC [p4795, MV-002 mimotope peptide]”, the “Binding Capacity” value is given as 2 (medium binding :40000-320000).

With “GQIRFDHC [p4669, MV-002 mimotope peptide]”, the “Binding Capacity” value is listed as 3 (strong binding :>320000).

“SGQLKFPC [p4413, MV-002 mimotope peptide]”: the “Binding Capacity” value was 1 (weak binding :<40000).

“SGEIYFERC [p4805, MV-002 mimotope peptide]”: the “Binding Capacity” value is given as 1 (weak binding :<40000).

Regarding “AGEIYFERC [p4806, MV-002 mimotope peptide]”, the “Binding Capacity” value is 1 (weak binding :<40000).

Take “GQIQFPLC [p4697, MV-002 mimotope peptide]”: the “Binding Capacity” value is reported as 3 (strong binding :>320000).

Take “GQILFPVC [p4684, MV-002 mimotope peptide]”: the “Binding Capacity” value is listed as 3 (strong binding :>320000).

As for “GEIRFELC [p4796, MV-002 mimotope peptide]”, the “Binding Capacity” value was 2 (medium binding :40000-320000).

On to “GQLKFPFC [p4690, MV-002 mimotope peptide]”, for which the “Binding Capacity” value is on record as 3 (strong binding :>320000).

For “CGEIYFER [p4807, MV-002 mimotope peptide]”, the “Binding Capacity” value is 1 (weak binding :<40000).

As for “GQIIFQSC [p4668, MV-002 mimotope peptide]”, the “Binding Capacity” value is on record as 2 (medium binding :40000-320000).

Regarding “GSLFFWPC [p4688, MV-002 mimotope peptide]”, the “Binding Capacity” value was 2 (medium binding :40000-320000).

As to “GMIVFPHC [p4679, MV-002 mimotope peptide]”, the “Binding Capacity” value was 3 (strong binding :>320000).

In the case of “GQIWFISC [p4666, MV-002 mimotope peptide]”, the “Binding Capacity” value is listed as 1 (weak binding :<40000).

Turning to “SGQIWFRC [p4414, MV-002 mimotope peptide]”, the “Binding Capacity” value is listed as 1 (weak binding :<40000).

Take “AIPLFVMC [p4682, MV-002 mimotope peptide]”: the “Binding Capacity” value is 1 (weak binding :<40000).

Consider “SGEIHFNC [p4415, MV-002 mimotope peptide]”, for which the “Binding Capacity” value was 1 (weak binding :<40000).

In the case of “SGEYVFHC [p4404, MV-002 mimotope peptide]”, the “Binding Capacity” value is 1 (weak binding :<40000).

On to “GDLKFPLC [p4683, MV-002 mimotope peptide]”, for which the “Binding Capacity” value is listed as 3 (strong binding :>320000).

Consider “KLPLFVMC [p4691, MV-002 mimotope peptide]”, for which the “Binding Capacity” value is reported as 1 (weak binding :<40000).

In the case of “THQRLWFC [p4693, MV-002 mimotope peptide]”, the “Binding Capacity” value is on record as 3 (strong binding :>320000).

Source of the values: patent US8409581B2, “Compounds for treating amyloidoses” (Affiris AG, priority 2008, dated 2013).
